Legend:
[1] = tested on: PARP; assay: Western blot of cleaved PARP in HT-29 cells; type: cell-based, human
Method: (§1) Human CRC HT-29 and HCT116 cells were treated or not with the determined IC50 values of compounds (12a, 10a, 10b) for indicated times (6, 12, 24 and 48h) and then harvested with trypsin. For total protein extraction, collected samples of each condition were washed with PBS. Then, the total cell pool was centrifuged at 200× g for 5 min at 4 °C and homogenized in RIPA lysis buffer (50 mM HEPES, pH 7.5, 150 mM NaCl, 1% sodium deoxycholate, 1% NP-40, 0.1% Sodium Dodecyl Sulfate (SDS), […] of aprotinin) containing protease inhibitors according to the manufacturer’s instructions as previously described. Proteins (60 µg) were separated on 12.5% SDS-PAGE gels and transferred to polyvinylidene difluoride (PVDF) membranes. Membranes were probed with respective human antibodies against caspase-3, cleaved caspase-3, PARP and Akt, ERK, p38 MAP Kinases and its phosphorylated forms according to the manufacturer’s instructions. After incubation with appropriate secondary antibodies, blots were developed using the «Immobilon Western » substrate following the manufacturer’s protocol and G:BOX system (Syngene, Ozyme). Membranes were then reblotted with human anti-β-actin used as a loading control.
Cells were treated or not for 24 and 48 h, with IC50 values of compounds 10a, 10b and 12a, for human CRC HT-29 cells and compounds 10a and 12a for human CRC HCT116 cells. Total lysates were collected, and expression of apoptosis-related proteins was determined by Western blot analysis.

[2] = tested on: human CRC HCT116 cells; assay: DNA fragmentation, Cell Death Detection ELISA, HCT116; type: cell-based; conditions: treated at IC50, n-fold compared to control
Method: (§2) Human CRC HT-29 and HCT116 cells were treated or not with the determined IC50 values of compounds (12a, 10a, 10b) for 24 and 48 h and then harvested with trypsin. Histone release from the nucleus during apoptosis was analyzed using the Cell Death Detection ELISA^PLUS as previously described. Cytosol extracts from 10^5 cells of each condition were obtained and DNA fragmentation was measured according to the manufacturer’s protocol. Results were reported as n-fold compared to control cells.

[3] = tested on: P-ERK; assay: Western blot of P-ERK in HCT116 cells; type: cell-based, human; conditions: HCT116, treated at IC50, 6 and 12 h
Method: as §1, with “Membranes were then reblotted with human anti-β-actin used as a loading control.” left out
(§3) P-Akt, Akt, P-ERK, ERK, P-p38, p-38 sourced from human CRC HCT116 cells line were investigated. […] Total lysates were collected and expression of Akt, ERK and p38 MAPK proteins and their phosphorylated forms were determined by Western blot analysis.

[4] = tested on: caspase-3; assay: Western blot of cleaved caspase-3 in HT-29 cells; type: cell-based, human; conditions: HT-29, treated at IC50, within 48 h
Method: as §1
(§4) Cells were treated or not for 24 and 48 h, with IC50 values of compounds 10a, 10b and 12a, for human CRC HT-29 cells and compounds 10a and 12a for human CRC HCT116 cells. […]

[5] = tested on: human CRC HCT116 cells; assay: MTT cell viability / IC50 on HCT116 cells; type: cell-based; conditions: for IC50: MTT assay, 1 to 50 µM, mean ± SEM of at least three experiments; for viability at 50 µM: HCT-116, MTT screening
Method: (§5) Cells were grown in DMEM medium for HT-29 cells and RPMI 1640 medium for HCT116 cells, supplemented with 10% FBS, 1% L-glutamine and 100 U/mL penicillin and 100 μg/mL streptomycin. Cultures were maintained in a humidified atmosphere containing 5% CO2 at 37 °C. Stock solutions of each compound were used at 10^−2 M in DMSO and then diluted in culture medium to obtain the appropriate final concentrations. […] L929 cell line is a non-cancer cell line derived from L-strain (L cells) and has been grown in the Peptinov laboratory for years. L929 cells are murine adherent fibroblasts from subcutaneous connective tissue (areolar and adipose tissues). Cells were grown in DMEM medium supplemented with 10% FBS, 1% L-glutamine and 100 U/mL penicillin and 100 µg/mL streptomycin and maintained in a humidified incubator at 37 °C, 5% CO2. When confluence is at 80%, cells are trypsinyzed for 3 min and diluted in fresh medium. Each batch of cells is kept for 15 passages before being discarded and a new batch thawed.
(§6) All compounds were tested on the metabolic activity of the cells using the MTT colorimetric assay. Briefly, cells were seeded in 96-well microplates at 8 × 10^3 cells/well for human CRC HT-29 cells and 5 × 10^3 cells/well for human CRC HCT116 cells and grown for 24 h in appropriate culture medium prior to exposure or not to compounds (6–27) with concentration ranges from 1 to 50 µM. After 48 h of treatment, MTT (5 g/L in Phosphate-buffered saline (PBS)) was added and incubated for another 3 h. The MTT was then removed from the wells and 100 µL/well of DMSO were added to dissolve formazan. The optical density was detected with a microplate reader (Thermoscientific, Multiskan FC) at 550 nm and cell viability was expressed as a percentage of each treatment condition compared to control cells. IC50 values were calculated for all compounds from the dose–response curve.

[6] = tested on: P-p38; assay: Western blot of P-p38 in HCT116 cells; type: cell-based, human; conditions: HCT116, treated at IC50, 6 and 12 h
Method: as §1, with “Membranes were then reblotted with human anti-β-actin used as a loading control.” left out
as §3

[7] = tested on: P-Akt; assay: Western blot of P-Akt in HCT116 cells; type: cell-based, human; conditions: HCT116, treated at IC50, 6 and 12 h
Method: as §1, with “Membranes were then reblotted with human anti-β-actin used as a loading control.” left out
as §3

[8] = tested on: human CRC HT-29 cells; assay: DNA fragmentation, Cell Death Detection ELISA, HT-29; type: cell-based; conditions: treated at IC50, n-fold compared to control
Method: as §2

[9] = tested on: human CRC HT-29 cells; assay: MTT cell viability / IC50 on HT-29 cells; type: cell-based; conditions: for viability at 50 µM: HT-29, MTT screening; for IC50: MTT assay, 1 to 50 µM, mean ± SEM of at least three experiments
Method: as §5, §6

[10] = tested on: PARP; assay: Western blot of cleaved PARP in HCT116 cells; type: cell-based, human; conditions: HCT116, treated at IC50, 24 and 48 h
Method: as §1, §4

[11] = tested on: caspase-3; assay: Western blot of cleaved caspase-3 in HCT116 cells; type: cell-based, human; conditions: HCT116, treated at IC50, 24 h (enhanced after 48 h)
Method: as §1, §4

Row | Structure (SMILES) | cleaved PARP expression ([1]; HT-29, treated at IC50, 24 h) | cleaved PARP expression ([1]; HT-29, treated at IC50, 48 h) | HCT116 DNA Fragmentation (Fold) ([2]; 24 h) | HCT116 DNA Fragmentation (Fold) ([2]; 48 h) | ERK phosphorylation [3] | cleaved caspase-3 expression [4] | IC50 ([5]; Homo sapiens, HCT-116, 48 h) | viability at 50 µM ([5]; Homo sapiens, 48 h) | IC50 ([5]; 48 h) | p38 activation [6] | P-Akt expression [7] | HT-29 DNA Fragmentation (Fold) ([8]; 24 h) | HT-29 DNA Fragmentation (Fold) ([8]; 48 h) | viability at 50 µM ([9]; Homo sapiens, 48 h) | IC50 ([9]; 48 h) | cleaved PARP expression [10] | cleaved caspase-3 expression [11] | IC50 ([9]; Homo sapiens, HT-29, 48 h)
1 | COc1ccc(C(=Cc2ccc(C(F)(F)F)cc2)c2ccccn2)cc1 [Compound 12a, 2-(1-(4-methoxyphenyl)-2-(4-(trifluoromethyl)phenyl)vinyl)pyridine] | slightly enhanced | overexpressed | 1.46 Fold | 6.97 Fold | drastically decreased | high expression of the cleaved form of caspase-3 | < 35 µM | < 50% | 31.4 ± 1.74 µM | no p38 activation was observed | downregulated | 2.90 Fold | 3.25 Fold | < 50% | 23 ± 1.27 µM | significant increase of cleaved PARP | cleavage of caspase-3 | –
2 | COc1ccc(C(=Cc2ccc(C(C)(C)C)cc2)c2ccccn2)cc1 [Compound 10a, 2-(2-(4-(tert-butyl)phenyl)-1-(4-methoxyphenyl)vinyl)pyridine] | never been expressed | never been expressed | 0.83 Fold | 1.89 Fold | drastically decreased | – | < 35 µM | < 50% | 33.6 ± 0.71 µM | no p38 activation was observed | inhibition is also observed | 1.12 Fold | 0.83 Fold | < 50% | 25.7 ± 1.21 µM | – | – | < 30 µM

From paper PMC9855432, “Novel Set of Diarylmethanes to Target Colorectal Cancer: Synthesis, In Vitro and In Silico Studies” (Biomolecules, 2022)
